We go through 28 molecules from ChEMBL document CHEMBL1221301, “SAR studies of non-zinc-chelating MMP-13 inhibitors: improving selectivity and metabolic stability” (Bioorg Med Chem Lett, 2010).

Bounds are passed on as bounds.

The target in one series is Collagenase 3 (Homo sapiens, UniProt P45452).
Series [1] in a line: Selectivity ratio of IC50 for MMP2 to IC50 for MMP13.
Series [2] can be described thus: Selectivity ratio of IC50 for MMP10 to IC50 for MMP13.
Series [3] can be described thus: Selectivity ratio of IC50 for MMP8 to IC50 for MMP13.
The subject of another series is Liver microsomes. Kind of series: Metabolic stability in human liver microsomes. It is filed as ADME, Microsome.
Series [4] can be described thus: Selectivity ratio of IC50 for MMP3 to IC50 for MMP13.
In the next series the test system is Rattus norvegicus. As to the kind of experiment: Clearance in rat as % of liver blood flow at 1 mg/kg, iv. It is filed as ADME, organism-based. Further details: dose 1 mg/kg, route intravenous. To be noted: in vivo.
A short description of series [5]: Volume of distribution at steady state in rat at 1 mg/kg, iv. The format is ADME, organism-based. Further details: dose 1 mg/kg, route intravenous. To be noted: in vivo, read-out: Vdss.
A short description of series [6]: Half life in rat at 1 mg/kg, iv. The format is ADME, organism-based. Further details: dose 1 mg/kg, route intravenous. The settings on record: in vivo.
Series [7] can be described thus: Aqueous solubility of the compound at pH 4.5. It is filed as physicochemical. To be noted: aqueous medium.
Series [8] in a line: Aqueous solubility of the compound at pH 7.4. It is filed as physicochemical. The settings on record: aqueous medium.

Take `CNC(=O)[C@H](NC(=O)c1ccc(-c2cccc(CNC(=O)c3cccnc3)c2)o1)C1CCCCC1`: it took 42 nM to reach half-maximal inhibition against Collagenase 3 (IC50). Also, the results for the Ratio IC50 in [1], in series [2] and in series [3] were more than 480, 7 and 48, respectively.

`CNC(=O)[C@H](NC(=O)c1ccc(-c2cccc(CNC(=O)c3cccc(C(F)(F)F)n3)c2)o1)C1CCCCC1`: in the series on Liver microsomes, the Stability is reported as 81%. Further, at Collagenase 3, half-maximal inhibition (IC50) required 9 nM. For the same molecule, the Ratio IC50 in [1], in [4], in [2] and in series [3] was more than 2300 throughout.

As to `CNC(=O)[C@H](NC(=O)c1ccc(-c2cccc(CNC(=O)c3csc(C)n3)c2)o1)C1CCCCC1`, on Collagenase 3, the half-inhibitory concentration (IC50) is 8 nM. Further, the Ratio IC50 in series [1] amounted to 310; in [2] it was 7; in [3] it was 1800.

Consider `CNC(=O)[C@H](NC(=O)c1ccc(-c2cccc(CNC(=O)c3ncccc3C)c2)o1)C1CCCCC1`, for which the midpoint of inhibition against Collagenase 3, the IC50, lay at 100 nM. Further, the Ratio IC50 in [1] is more than 200; in series [4] it was 85; in series [2], 31; in series [3], more than 200.

`CNC(=O)[C@H](NC(=O)c1ccc(-c2cccc(CNC(=O)c3ccncn3)c2)o1)C1CCCCC1`: half-maximal inhibition on Collagenase 3 (IC50) was put at 10 nM. Moreover, the values for the Ratio IC50 in series [1], in [2] and in series [3] were 290, 9 and more than 2000, respectively.

For `CNC(=O)[C@@H](NC(=O)c1ccc(-c2cccc(CNC(=O)c3ccnc(C(F)(F)F)n3)c2)o1)C1CCOCC1`, the Stability in the series on Liver microsomes is given as 24%. Further, the Ratio IC50 in series [1] was 640; in series [4], 250; in series [2] it was 100; in [3] it was more than 11000.

Turning to `CNC(=O)[C@@H](NC(=O)c1ccc(-c2cccc(CNC(=O)c3cccc(C(F)(F)F)n3)c2)o1)C1CC1`, in the series on Liver microsomes, the Stability is 60%.

In the case of `CNC(=O)[C@H](NC(=O)c1ccc(-c2cccc(CNC(=O)c3occc3C)c2)o1)C1CCCCC1`, the IC50 against Collagenase 3 was 180 nM. For the same molecule, the Ratio IC50 in [1] is more than 110; in series [4] it was more than 110; in [2], 17; in series [3], more than 110.

In the series with Liver microsomes, `CNC(=O)[C@@H](NC(=O)c1ccc(-c2cccc(CNC(=O)c3ccnc(C(F)(F)F)n3)c2)o1)C(C)(C)O` returned a Stability of 14%. Moreover, the “Fraction of Liver Blood Flow” value in the series on Rattus norvegicus was 26%. For the same molecule, in [5], the Vd came out at 0.9 L/kg. This molecule also showed a half-life in series [6] of 57 min. For the same molecule, the solubility in [7] and in series [8] was more than 50 µg/mL throughout.

Turning to `CNC(=O)[C@H](NC(=O)c1ccc(-c2cccc(CNC(=O)c3ccccn3)c2)o1)C1CCCCC1`, at Collagenase 3, the 50% inhibitory concentration (IC50) was determined as 8 nM. Moreover, the Ratio IC50 is more than 2400 in series [1], 200 in series [4], 65 in series [2] and more than 2400 in [3].

In the series on Liver microsomes, `CNC(=O)[C@@H](NC(=O)c1ccc(-c2cccc(CNC(=O)c3ccnc(C(F)(F)F)n3)c2)o1)C(C)C` yielded a Stability of 70%. This molecule also returned an IC50 against Collagenase 3 of 9 nM. The Ratio IC50 in series [1] was 850; in series [4] it was 200; in [2] it was 50; in series [3], more than 2100.

Regarding `CNC(=O)[C@H](NC(=O)c1ccc(-c2cccc(CNC(=O)c3ccnc(C(F)(F)F)n3)c2)o1)C1CCCCC1`, in the series with Liver microsomes, the Stability is 66%. For the same molecule, the IC50 at Collagenase 3 worked out at 7 nM. The Ratio IC50 was more than 2800 in series [1], more than 2800 in series [4], 370 in [2] and more than 2800 in series [3].

Turning to `CNC(=O)[C@H](NC(=O)c1ccc(-c2cccc(CNC(C)=O)c2)o1)C1CCCCC1`, at Collagenase 3, the IC50 was determined as 3300 nM. Further, the Ratio IC50 in [1] is 5; in series [4], 3; in series [2], 0.5; in series [3], more than 7.

Turning to `CNC(=O)[C@H](NC(=O)c1ccc(-c2cccc(CNC(=O)c3ccoc3C)c2)o1)C1CCCCC1`, at Collagenase 3, half-maximal inhibition (IC50) required 330 nM. Further, the Ratio IC50 in series [1] is more than 61; in series [4], 9; in series [2] it was 8; in series [3], more than 61.

In the case of `CNC(=O)[C@H](NC(=O)c1ccc(-c2cccc(CNC(=O)c3ccnc(Cl)n3)c2)o1)C1CCCCC1`, at Collagenase 3, half-maximal inhibition (IC50) was put at 3 nM. The values for the Ratio IC50 in series [1], in series [2] and in series [3] were 590, 27 and more than 7100, respectively.

As for `CNC(=O)[C@H](NC(=O)c1ccc(-c2cccc(CNC(=O)c3cn4cccc(C)c4n3)c2)o1)C1CCCCC1`, the half-maximal inhibitory concentration (IC50) against Collagenase 3 was 110 nM. Also, the Ratio IC50 is more than 45 in series [1], more than 45 in series [4], 29 in [2] and more than 45 in [3].

Take `CNC(=O)[C@H](NC(=O)c1ccc(-c2cccc(CNC(=O)c3ccn(C)n3)c2)o1)C1CCCCC1`: the IC50 on Collagenase 3 turned out to be 24 nM. For the same molecule, the Ratio IC50 was more than 430 in [1], 33 in [4], 14 in [2] and more than 820 in [3].

`CNC(=O)[C@H](NC(=O)c1ccc(-c2cccc(CNC(=O)c3ccco3)c2)o1)C1CCCCC1` registered a concentration for half-maximal inhibition (IC50) against Collagenase 3 of 75 nM. Besides, the Ratio IC50 in series [1] is more than 270; in [4] it was 15; in series [2], 6; in [3] it was more than 270.

Turning to `CNC(=O)[C@@H](NC(=O)c1ccc(-c2cccc(CNC(=O)c3cccc(C(F)(F)F)n3)c2)o1)C(C)C`, the Stability in the series with Liver microsomes is 88%. On Collagenase 3, this molecule returned an IC50 of 6 nM. Besides, the Ratio IC50 was more than 3600 in series [1], 1000 in series [4], 260 in [2] and more than 3600 in [3].

As for `CNC(=O)[C@@H](NC(=O)c1ccc(-c2cccc(CNC(=O)c3ccnc(C(F)(F)F)n3)c2)o1)C1CC1`, in the series with Liver microsomes, the Stability amounted to 69%. Also, the IC50 against Collagenase 3 stood at 36 nM. Moreover, the Ratio IC50 is 580 in [1], 540 in series [4], 170 in series [2] and more than 560 in series [3]. Besides, the “Fraction of Liver Blood Flow” value in the series on Rattus norvegicus was found to be 47%. Further, the Vd in [5] is 1.2 L/kg. In addition, the half-life in series [6] was 42 min.

`CNC(=O)[C@H](NC(=O)c1ccc(-c2cccc(CNC(=O)c3nccn3C)c2)o1)C1CCCCC1` registered an IC50 against Collagenase 3 of 310 nM. Also, the Ratio IC50 is more than 64 in series [1], more than 64 in [4], 9 in series [2] and more than 64 in series [3].

In the case of `CNC(=O)[C@H](NC(=O)c1ccc(-c2cccc(CNC(=O)c3cc(C)n(C)n3)c2)o1)C1CCCCC1`, the IC50 against Collagenase 3 stood at 72 nM. In addition, the Ratio IC50 is more than 280 in series [1], 51 in [4], 19 in series [2] and more than 280 in series [3].

`CNC(=O)[C@H](NC(=O)c1ccc(-c2cccc(CNC(=O)c3cn4ccc(C)cc4n3)c2)o1)C1CCCCC1` came in with a concentration for half-maximal inhibition (IC50) against Collagenase 3 of 140 nM. Also, the Ratio IC50 in [1] is more than 37; in series [4] it was more than 37; in series [2], 32; in [3], more than 37.

Regarding `CNC(=O)[C@@H](NC(=O)c1ccc(-c2cccc(CNC(=O)c3cccc(C(F)(F)F)n3)c2)o1)C(C)(C)O`, the Stability in the series with Liver microsomes is 62%. The same molecule gave an IC50 at Collagenase 3 of 25 nM. In addition, the Ratio IC50 is more than 770 in [1], more than 400 in series [4], 440 in series [2] and more than 810 in series [3].

The molecule `CNC(=O)[C@H](NC(=O)c1ccc(-c2cccc(CNC(=O)c3cccc(C)n3)c2)o1)C1CCCCC1` registered an IC50 at Collagenase 3 of 4 nM. Also, the Ratio IC50 was more than 4900 in series [1], 240 in series [4], 87 in [2] and more than 4900 in [3].

As for `CNC(=O)[C@H](NC(=O)c1ccc(-c2cccc(CNC(=O)c3ccncc3)c2)o1)C1CCCCC1`, on Collagenase 3, half-maximal inhibition (IC50) was put at 31 nM. The figures for the Ratio IC50 in [1], in series [2] and in [3] were 310, 4 and more than 660, respectively.

On Collagenase 3, `CCc1cncc(C(=O)NCc2cccc(-c3ccc(C(=O)N[C@@H](C(=O)NC)C4CCCCC4)o3)c2)c1` showed an IC50 of 29 nM. The Ratio IC50 in series [1] is more than 170; in series [4] it was more than 170; in series [2], 45; in [3], more than 170.

With `CNC(=O)[C@@H](NC(=O)c1ccc(-c2cccc(CNC(=O)c3cccc(C(F)(F)F)n3)c2)o1)C1CCOCC1`, the Stability in the series with Liver microsomes is reported as 83%. For the same molecule, the Ratio IC50 in series [1] was found to be 1500; in [4] it was 330; in series [2] it was 130; in [3], 7100.

Usually IC50 stands for the point on the concentration scale where inhibition reaches its midpoint. A higher IC50 goes with weaker potency in that assay. For orientation: half-life means the time needed for the level to fall by half in the phase considered. What is called solubility is the concentration that dissolves in the medium under given conditions. Low readings indicate little dissolved substance, high ones much dissolved substance.
